Data taken from patent publication EP3727588B1, “ACTIVATOR PEPTIDES OF THE ENZYME ADAM 10 AND RELATED USES IN THE TREATMENT OF ALZHEIMER'S DISEASE” (UNIVERSITA' DEGLI STUDI DI MILANO, priority 2017, dated 2019).
Where “and” joins values, the source holds several entries; their conditions need not be identical. Equal values may be shown once. Peptide text beside a SMILES is read from it.

Tests used:
[1] = test system: GFAP and Iba-1 positive cells; assay: neuro-inflammation: GFAP and Iba-1 positive cells in hippocampus; assay type: in vivo, mice; details: 5 fields, 14 days' treatment
Protocol: (§1) C57/BL6 adult mice were treated for 14 days with daily intraperitoneal injection of saline solution or peptides at a dose of 3 nmol/g (6-10 animals per experimental group). The animals were maintained in an enclosure at 25 ± 2 °C with an alternating light/dark cycle of 12 hours and had free access to water and food in the form of pellets (standard diet).
After the sacrifice of the treated animal, a portion of liver and a brain hemisphere were fixed in 10% formalin for 48 hours, and included in paraffin. From each block of paraffin, serial sections 5/6µm thick were obtained. The sections were then stained with haematoxylin-eosin or processed through immunohistochemistry.
Subsequently, to evaluate the presence of neuro-inflammation, 5 different fields of the hippocampus were considered to verify any presence of GFAP and Iba-1 positive cells.

[2] = leukogram (white blood cell count) after 14 days' treatment; assay type: in vivo, mice
Protocol: as §1
(§2) The blood, collected through cardiac puncture, was analysed with a laser counter (ADVIA 120, Siemens) using specific software for the murine species. From each sample a blood smear was prepared, stained with the May Grünwald-Giemsa method, and used for the morphological analysis of the leukocytes, the red blood cells and the platelet estimate. After the automatic counting of the cells and the preparation of the smear, all the samples were centrifuged and the plasma was transferred into separate test tubes. The analysis of the plasma samples was performed through automatic spectrophotometer (ILAB-300, Instrumentation Laboratory). All the results were compared with the values provided by the company Charles River for mice of the same strain and age.
Except for the basophils and eosinophils, the total count and white blood cell (WBC) differential is lower with respect to the range values in all the animals treated. However, we noticed that the reference range values provided by the company Charles River are particularly high with respect to other values provided for other control groups and in other scientific articles in which the same animal strain is analysed. Justification for these differences found is provided by the pre-analytical factors used by Charles River in determining the different reference ranges (such as the method used, the type of sampling used, etc.). Despite this, the analyses of the data performed both individually and by examining the mean and median values in the different groups, show some differences in the values referring to mice treated with the active peptide with respect to the control mice (Table 2).
The following Table 2 illustrates the results of the white blood cell count. The reference values are provided by Charles River for C57BL mice of 56-70 days.

[3] = Novel Object Recognition Test (NORT), C57BL/6 mice; assay type: in vivo; details: 14 days' treatment
Protocol: as §1
After 14 days of treatment the animals were subjected to the Novel Object Recognition Test (NORT). Such test is structured in three phases: habituation, familiarization and testing. In the first phase, the animal is placed in an empty arena and left free to explore the environment for 5 minutes. The day after, during the familiarization phase, the animal is placed in the same arena in the presence of two objects, identical in shape and size, for 10 minutes. Then the time spent by the animal exploring the individual object is recorded. On the third day, the animal is placed in the area in the presence of an identical object to that used in the familiarization phase and a new one. In this phase the difference in time spent by the animal exploring the familiar object and the new object is evaluated. […] In both phases of the test, the objects are positioned symmetrically and opposite inside the arena, and all the sessions are recorded with the aid of a video camera. […]

[4] = blood count and platelet count after 14 days' treatment; assay type: in vivo, mice; set-up: key to Aggregate s: +, ++, +++ considering the presence of platelet aggregates detected in the blood smear that make the analysis difficult; +, ++, +++ considering the presence of platelet aggregates detected in the blood smear that make the analysis difficult; +, ++, +++ considering the presence of platelet aggregates detected in the blood smear that make the analysis difficult; key to Estimate Plt: A= appropriate platelet estimate
Protocol: as §1, §2
The range values are provided by Charles River for C57BL mice aged between 56-70 days, whose blood was collected by cardiac puncture after euthanasia.

[5] = test system: dendritic spines of the hippocampal neurons; assay: dendritic spine morphology and density in hippocampus, C57BL/6 mice; assay type: in vivo; details: 14 days' treatment
Protocol: as §1
For the dendritic spine analysis, the protocol used is the one previously described by Kim et al, and envisages the use of DilDye lipophilic tracer (Invitrogen) to allow the dendritic spines to be viewed under the confocal microscope. The analysis of the dimensions and morphology of the spines was performed with ImageJ software.
The spines were classified, based on their morphology, into three different categories: thin, stubby (without a well-defined "neck") and mushroom shaped. To evaluate the possible effect induced by PEP3 on the spine morphology, two animals for each experimental group were perfused after 14 days of treatment and the brain was post-fixed in PFA and cut with a vibratome. To view the dendritic spines the lipophilic tracer DilDye was used. From the images acquired from the confocal microscope the number, length and width of the head of the dendritic spines of the hippocampal neurons were measured.

[6] = body weight and food intake during 14 days' treatment; assay type: in vivo; details: C57BL/6 mice, daily intraperitoneal 3 nmol/g
Protocol: as §1
For the entire duration of the treatment, on a daily basis, the weight and food intake of each animal were monitored and recorded, in order to evaluate any changes caused by the treatment. 24 hours after the last injection the mice were anaesthetized, and then the blood was taken through cardiac puncture, whereas the brain and liver of the animal were rapidly dissected to perform biochemical or immunohistological analyses.
The body weight and food intake were monitored and recorded on a daily basis.

[7] = individual animal, 14 days, daily intraperitoneal 3 nmol/g

Q: Which “number of GFAP positive cells” value [1] does the source give for N=C(N)NCCC[C@H](NC(=O)CNC(=O)[C@@H](N)Cc1ccc(O)cc1)C(=O)N[C@@H](CCCCN)C(=O)N[C@@H](CCCCN)C(=O)N[C@@H](CCCNC(=N)N)C(=O)N[C@@H](CCCNC(=N)N)C(=O)N[C@@H](CCC(N)=O)C(=O)N[C@@H](CCCNC(=N)N)C(=O)N[C@@H](CCCNC(=N)N)C(=O)N[C@@H](CCCNC(=N)N)C(=O)NCC(=O)NCC(=O)N[C@@H](CO)C(=O)NCC(=O)N[C@@H](CCC(N)=O)C(=O)N1CCC[C@H]1C(=O)N1CCC[C@H]1C(=O)N[C@@H](CCC(=O)O)C(=O)N[C@@H](CCC(N)=O)C(=O)N[C@@H](CCC(=O)O)C(=O)N1CCC[C@H]1C(=O)N[C@@H](CCCNC(=N)N)C(=O)NCC(=O)O [inPEP3, reference compound] (H-YGRKKRRQRRRGGSGQPPEQEPRG-OH) here?
A: 31.67±1.12

Q: What about the “number of Iba-1 positive cells” value [1] of the same compound?
A: 8.50±0.43

Q: And the Basophils ([2]; group mean)?
A: 0 µL⁻¹

Q: What about the Eosinophils ([2]; group mean) of the same compound?
A: 39.9 µL⁻¹

Q: What about the Lymphocytes ([2]; group mean) of the same compound?
A: 1935.9 µL⁻¹

Q: And the Monocytes ([2]; group mean)?
A: 137.1 µL⁻¹

Q: And the Neutrophils ([2]; group mean)?
A: 990.5 µL⁻¹

Q: And the White blood cells ([2]; group mean)?
A: 3103.3 µL⁻¹

Q: And the Basophils ([2]; group median)?
A: 0 µL⁻¹

Q: And the Eosinophils ([2]; group median)?
A: (-0.0378). x10^3/µL

Q: What about the Lymphocytes ([2]; group median) of the same compound?
A: (-1.837). x10^3/µL

Q: And the Monocytes ([2]; group median)?
A: (-0.0918). x10^3/µL

Q: And the Neutrophils ([2]; group median)?
A: (-0.2468). x10^3/µL

Q: What about the White blood cells ([2]; group median) of the same compound?
A: (-2.295). x10^3/µL

Q: And the Basophils [2, 7]?
A: 0 µL⁻¹

Q: And the Eosinophils [2, 7]?
A: 26.1 µL⁻¹ and 31 µL⁻¹ and 44.8 µL⁻¹ and 62 µL⁻¹ and 36 µL⁻¹ and 39.6 µL⁻¹

Q: What about the Lymphocytes [2, 7] of the same compound?
A: 2218.5 µL⁻¹ and 1271 µL⁻¹ and 1971.2 µL⁻¹ and 2976 µL⁻¹ and 1476 µL⁻¹ and 1702.8 µL⁻¹

Q: And the Monocytes [2, 7]?
A: 104.4 µL⁻¹ and 15.5 µL⁻¹ and 179.2 µL⁻¹ and 372 µL⁻¹ and 72 µL⁻¹ and 79.2 µL⁻¹

Q: What about the Neutrophils [2, 7] of the same compound?
A: 261 µL⁻¹ and 232.5 µL⁻¹ and 2284.8 µL⁻¹ and 2790 µL⁻¹ and 216 µL⁻¹ and 158.4 µL⁻¹

Q: And the White blood cells [2, 7]?
A: 2610 µL⁻¹ and 1550 µL⁻¹ and 4480 µL⁻¹ and 6200 µL⁻¹ and 1800 µL⁻¹ and 1980 µL⁻¹

Q: What about the “time exploring the new object” value [3] of the same compound?
A: 59.24 ± 4.58%

Q: What about the “(Ht)” value ([4]; group mean) of the same compound?
A: 48.6%

Q: What about the Hb ([4]; group mean) of the same compound?
A: 12.3 g/dL

Q: And the “Mean Corpuscula r Hb (MCH)” value ([4]; group mean)?
A: 13.4 pg

Q: And the “Mean Corpuscula r Hb Conc. MCHC” value ([4]; group mean)?
A: 25.3%

Q: What about the Platelet count ([4]; group mean) of the same compound?
A: 661000 µL⁻¹

Q: And the Red blood cells ([4]; group mean)?
A: 9.16e+06 µL⁻¹

Q: And the “Red cell distribution width (RDW)” value ([4]; group mean)?
A: 20.7%

Q: And the “Vol. Mean Corp. Vol. (MCV)” value ([4]; group mean)?
A: 53.1 fL

Q: And the “(Ht)” value ([4]; group median)?
A: -48.4%

Q: What about the Hb ([4]; group median) of the same compound?
A: -12.3 g/dL

Q: And the Platelet count ([4]; group median)?
A: -659000 µL⁻¹

Q: What about the Red blood cells ([4]; group median) of the same compound?
A: -9.13e+06 µL⁻¹

Q: And the “Red cell distribution width (RDW)” value ([4]; group median)?
A: -20.5%

Q: And the “Vol. Mean Corp. Vol. (MCV)” value ([4]; group median)?
A: -53.1 fL

Q: And the “Estimate Plt” value ([4]; individual animal, blood smear, first part of cell)?
A: A

Q: What about the Aggregate s ([4]; individual animal, blood smear, second part of cell) of the same compound?
A: +++

Q: What about the “(Ht)” value [4, 7] of the same compound?
A: 50.1% and 49.5% and 47.8% and 48.7% and 48% and 47.3%

Q: What about the Hb [4, 7] of the same compound?
A: 12.6 g/dL (2×) and 12 g/dL (2×) and 12.4 g/dL and 12.1 g/dL

Q: And the “Mean Corpuscula r Hb (MCH)” value [4, 7]?
A: 13.5 Pg (3×) and 13.3 Pg and 13.4 Pg (2×)

Q: What about the “Mean Corpuscula r Hb Conc. MCHC” value [4, 7] of the same compound?
A: 25.1% (2×) and 25.5% (2×) and 25.2% and 25.4%

Q: And the Platelet count [4, 7]?
A: 522000 µL⁻¹ and 661000 µL⁻¹ and 656000 µL⁻¹ and 341000 µL⁻¹ and 998000 µL⁻¹ and 790000 µL⁻¹

Q: And the Red blood cells [4, 7]?
A: 9.36e+06 µL⁻¹ and 9.34e+06 µL⁻¹ and 9.01e+06 µL⁻¹ and 9.21e+06 µL⁻¹ and 9.04e+06 µL⁻¹ and 8.97e+06 µL⁻¹

Q: And the “Red cell distribution width (RDW)” value [4, 7]?
A: 20.4% and 20.6% and 21.4% and 21.8% and 19.6% and 20.1%

Q: And the “Vol. Mean Corp. Vol. (MCV)” value [4, 7]?
A: 53.5 fL and 53 fL and 53.1 fL (2×) and 52.9 fL and 52.7 fL

Q: And the “density of the dendritic spines” value [5]?
A: 10.15±1.05 n. of spines/10µm

Q: And the “length of mushroom shaped spines” value [5]?
A: 0.85±0.04

Q: What about the “length of the spines” value [5] of the same compound?
A: 0.83±0.02 µm

Q: And the “percentage of mushroom shaped spines” value [5]?
A: 30.81 ± 1.78%

Q: What about the “percentage of stubby spines” value [5] of the same compound?
A: 42.78 ± 1.86%

Q: And the “percentage of thin spines” value [5]?
A: 26.41 ± 1.42%

Q: What about the “width of the head of spines” value [5] of the same compound?
A: 0.79±0.02 µm

Q: What about the “food intake (ratio daily food intake / mean body weight)” value [6] of the same compound?
A: 99.03±2.03%
